Assays:
[1] = Regional luminal fluid pH in rats; format: in vivo; conditions: lansoprazole 5 mg/mL/kg i.p. 1 h before oral 5-ASA solution in 5% NaHCO3; 3 h after 5-ASA; untreated control rats […] ± 0.60, p = 0.07
[2] = test system: MRP2; conditions: cited from earlier work
[3] = three animal species (rats, rabbits, and pigs); cited from earlier work
[4] = 5-ASA membrane distribution study in rats (GI membrane concentrations); conditions: fed rats, oral 30 mg/2.2 mL/kg
Protocol: The animal study was performed according to the Care and Use of Laboratory Animals of the Committee for Animal Experiments of Fukuyama University (2023-A-10). Male Sprague Dawley rats were purchased from Japan SLC, Inc. (Hamamatsu, Japan). After feeding for several days, the rats that weighed 200 to 300 g were used for the membrane distribution studies. […] Separately, the fed rats were treated with lansoprazole, which was dissolved with a small amount of dimethyl sulfoxide (DMSO) and then diluted with physiological saline to make a lansoprazole solution (5 mg/mL); this solution was injected intraperitoneally at a 5 mg/mL/kg dose. […] One milliliter of water was poured into each isolated segment’s lumen and the luminal fluid pH was measured using a compact pH meter (HORIBA, LAQUA twin®, Kyoto, Japan). The intestinal tract was opened and cleaned with ice-cold 0.9% NaCl solution, frozen in liquid nitrogen, and stored at −80 °C until analysis.
An L-column 2 ODS (150 mm × 4.6 mm, particle size 5 µm, CERI Co., Ltd., Saitama, Japan) was used, and the mobile phase was a mixture of 0.1 M acetic acid, acetonitrile, and triethylamine (920:100:2, v/v/v). The mobile phase flow rate was 1 mL/min. […] The HPLC system (Shimadzu, Kyoto, Japan) comprised a model LC20AD pump, a 20 µL fixed injection loop, and a fluorescence spectrophotometer (Shimadzu, RF10AXL). […]

[5] = test system: NAT; conditions: cited from earlier work; for Inhibition of 5-ASA Ac-CoA-dependent metabolism: alternative NAT substrates
[6] = test system: peptide transporter 1 (PEPT1); set-up: method as in PMID 28867741; conditions: cited from earlier work
[7] = set-up: method as in PMID 3557190; conditions: healthy volunteers, intravenous dose 0.50 g, oral dose 2.42 g; cited from earlier work

With `Cc1c(OCC(F)(F)F)ccnc1C[S+]([O-])c1nc2ccccc2[nH]1` (centres unmarked) [lansoprazole] the “Gastric pH” value [1] was 4.77 ± 0.12.

For `O=c1c(O)c(-c2ccc(O)c(O)c2)oc2cc(O)cc(O)c12` [quercetin], the “PappBA/PappAB permeability ratio of AC-5-ASA in presence of the MRP inhibitor” value ([2]; Caco-2 cells) is given as about 1.

In the case of `C[C@]12C=CC(=O)C=C1CC[C@@H]1[C@@H]2[C@@H](O)C[C@@]2(C)[C@H]1CC[C@]2(O)C(=O)CO` [prednisolone], the “Correlation of solubility with gastrointestinal pH” value [3] is listed as “not correlated significantly”.

In the case of `CC(=O)Nc1ccc(O)c(C(=O)O)c1` [AC-5-ASA, N-acetyl-5-ASA], the PappBA/PappAB ratio ([2]; Caco-2 cells) is given as 4.89 and the “Substrate for MRP2” value [2] is given as “is a substrate”.

For `Nc1ccc(O)c(C(=O)O)c1` [5-ASA, 5-Aminosalicylic acid], the “Time for remaining unabsorbed 5-ASA in the small intestine to reach the distal intestine” value [4] is given as at most 8 h, the “Time for some fraction of orally administered 5-ASA to reach the cecum/proximal colon” value [4] is given as at most 3 h and the Km ([5]; saturable, read-out: Km of Ac-CoA-dependent metabolism) is given as 5.8 µM. The “Inhibition of PEPT1-mediated uptake transport” value [6] was “can inhibit”, the “Substrate for MRP2” value [2] was “is not a substrate and not” and the Absolute oral bioavailability [7] was 15.5%.

For `Nc1ccc(C(=O)N[C@@H](CCC(=O)O)C(=O)O)cc1` [p-aminobenzoylglutamate], the “Inhibition of 5-ASA Ac-CoA-dependent metabolism” value [5] is given as “inhibited”.

In the case of `CN(C)C(=O)CCSC(SCCC(=O)O)c1cccc(/C=C/c2ccc3ccc(Cl)cc3n2)c1` (centres unmarked) [MK571], the “PappBA/PappAB permeability ratio of AC-5-ASA in presence of the MRP inhibitor” value ([2]; Caco-2 cells) is given as about 1.

For `NNC(=O)c1ccncc1` [isoniazid], the “Inhibition of 5-ASA Ac-CoA-dependent metabolism” value [5] is listed as “inhibited”.

— paper PMC11677752 (Pharmaceutics, 2024)
